# Measurements published in patent US20080293699A1, “Inhibitors of thapsigargin-induced cell death” (priority 2007, published 2008).
# Like-named read-outs stand apart in the source and are kept apart here.
# Tested on: CSM14.1 cells
# Test: Primary HTS assay: ATP content (ATPlite) of undifferentiated CSM14.1 cells challenged with thapsigargin
# Type: cell-based, rat
# Conditions: for IC50: thapsigargin-induced death of undifferentiated CSM14.1, ATP content
# In short: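 Undifferentiated CSM14.1 cells, 3,000/well, cultured overnight at 32 °C, then test compounds at ~15 μg/mL final (1% DMSO) added. Thapsigargin ~15 μM final given after 2 h; ATPlite luminescence read after 24 h as survival surrogate, with 100 μM Salubrinal as maximum and DMSO as minimum.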
# [1] = one value given, read-out: IC50
# [2] = first assay, read-out: IC50 (μM), first value
# [3] = second assay (value in bold), read-out: IC50 (μM), value from a second assay
Structure (SMILES),"Cytoprotective activity, stimulus Thapsigargin (Result) (readout ATP & Annexin, CSM 14.1, compound ≦25 μM)",IC50 [1],IC50 [2],IC50 [3]
"CCN(CC)c1ccc(C2Nc3ccccc3NC3=C2C(=O)CC(c2ccccc2)C3)cc1 (centres unmarked) [Compound 5962123, 6-(4-diethylaminophenyl)-9-phenyl-5,6,8,9,10,11-hexahydrobenzo[c][1,5]benzodiazepin-7-one]",+ (+indicates ≧50% rescue of cell viability relative to untreated cells not exposed to thapsigargin at compound concentration of ≦25 μM),7.5 ± 0.857 µM,–,–
COc1ccc(C2CC(=O)C3=C(C2)Nc2ccccc2NC3c2ccccc2C(F)(F)F)cc1OC (centres unmarked) [Compound 6237735],–,12.5 ± 0.186 µM,17.2 ± 0.471 µM,12.5 ± 0.186 µM
COc1ccc(C2CC(=O)C3=C(C2)Nc2ccccc2NC3c2cccc(Oc3ccccc3)c2)cc1OC (centres unmarked) [Compound 6239507],–,10.2 ± 1.62 µM,13.9 ± 0.26 µM,10.2 ± 1.62 µM
